Source: ChEMBL document CHEMBL1143091, “Synthesis and SAR studies of biaryloxy-substituted triazoles as antifungal agents” (2008)
≈ marks a conversion by molar mass, not a printed value.

Legend:
[1] = tested on: Fonsecaea compacta; test: Antimicrobial activity against Fonsecaea compacta isolates; format: functional
[2] = tested on: Cryptococcus neoformans; test: Antimicrobial activity against Cryptococcus neoformans ATCC 32609; format: functional
[3] = tested on: Aspergillus fumigatus; test: Antimicrobial activity against Aspergillus fumigatus isolates; format: functional
[4] = tested on: Candida albicans; test: Antimicrobial activity against Candida albicans ATCC 76615; format: functional
[5] = tested on: Nannizzia gypsea; test: Antimicrobial activity against Microsporum gypseum isolates; format: functional
[6] = tested on: Candida tropicalis; test: Antimicrobial activity against Candida tropicalis isolates; format: functional
[7] = tested on: Candida parapsilosis; test: Antimicrobial activity against […] isolates; format: functional; details: Lodderomyces parapsilosis
[8] = tested on: Trichophyton rubrum; test: Antimicrobial activity against Trichophyton rubrum isolates; format: functional
[9] = tested on: Candida parapsilosis; test: Antimicrobial activity against Candida parapsilosis isolates; details: Lodderomyces parapsilosis

SMILES	MIC [1]	MIC [2]	MIC [3]	MIC [4]	MIC [5]	MIC [6]	MIC [7]	MIC [8]	MIC [9]
O=C(CN1CCCCC1)Nc1ccc(-c2ccc(OCC(O)(Cn3cncn3)c3ccc(F)cc3F)cc2)cn1 (stereo unspecified)	1 µg/mL (≈ 1.82 µM)	1 µg/mL (≈ 1.82 µM)	> 64 µg/mL	0.0625 µg/mL (≈ 0.114 µM)	0.25 µg/mL (≈ 0.456 µM)	0.0156 µg/mL (≈ 0.0284 µM)		0.25 µg/mL (≈ 0.456 µM)	0.0625 µg/mL (≈ 0.114 µM)
CCCCCCCNc1ccc(-c2ccc(OCC(O)(Cn3cncn3)c3ccc(F)cc3F)cc2)cn1 (stereo unspecified)	1 µg/mL (≈ 1.92 µM)	1 µg/mL (≈ 1.92 µM)	> 64 µg/mL	0.25 µg/mL (≈ 0.479 µM)	1 µg/mL (≈ 1.92 µM)	0.25 µg/mL (≈ 0.479 µM)		0.25 µg/mL (≈ 0.479 µM)	1 µg/mL (≈ 1.92 µM)
C[C@@H](c1ncncc1F)[C@](O)(Cn1cncn1)c1ccc(F)cc1F [VORICONAZOLE]	0.0625 µg/mL (≈ 0.179 µM)	1 µg/mL (≈ 2.86 µM)	0.25 µg/mL (≈ 0.716 µM)	0.25 µg/mL (≈ 0.716 µM)	0.0156 µg/mL (≈ 0.0447 µM)	0.0156 µg/mL (≈ 0.0447 µM)		0.0156 µg/mL (≈ 0.0447 µM)	0.0625 µg/mL (≈ 0.179 µM)
CN(Cc1ccc(-c2ccc(OCC(O)(Cn3cncn3)c3ccc(F)cc3F)cc2)cc1)c1ccccc1 (stereo unspecified)	16 µg/mL (≈ 30.4 µM)	1 µg/mL (≈ 1.9 µM)	> 64 µg/mL	1 µg/mL (≈ 1.9 µM)	> 64 µg/mL	0.25 µg/mL (≈ 0.475 µM)		16 µg/mL (≈ 30.4 µM)	1 µg/mL (≈ 1.9 µM)
C[C@@H]1COC[C@H](C)N1Cc1ccc(C(=O)Nc2ccc(-c3ccc(OCC(O)(Cn4cncn4)c4ccc(F)cc4F)cc3)cn2)cc1 (stereo partly specified)	16 µg/mL (≈ 24.4 µM)	4 µg/mL (≈ 6.11 µM)	> 64 µg/mL	0.0625 µg/mL (≈ 0.0955 µM)	> 64 µg/mL	0.0625 µg/mL (≈ 0.0955 µM)		> 64 µg/mL	0.0625 µg/mL (≈ 0.0955 µM)
CN(C/C=C/C#CC(C)(C)C)Cc1cccc2ccccc12 [TERBINAFINE]	0.0625 µg/mL (≈ 0.214 µM)	0.25 µg/mL (≈ 0.858 µM)	0.0625 µg/mL (≈ 0.214 µM)	1 µg/mL (≈ 3.43 µM)	0.0156 µg/mL (≈ 0.0535 µM)	0.25 µg/mL (≈ 0.858 µM)		0.0625 µg/mL (≈ 0.214 µM)	0.25 µg/mL (≈ 0.858 µM)
CC(=O)N1CCN(c2ccc(OCC3COC(Cn4ccnc4)(c4ccc(Cl)cc4Cl)O3)cc2)CC1 (stereo unspecified) [KETOCONAZOLE]	0.25 µg/mL (≈ 0.47 µM)	0.0156 µg/mL (≈ 0.0294 µM)	1 µg/mL (≈ 1.88 µM)	0.25 µg/mL (≈ 0.47 µM)	0.25 µg/mL (≈ 0.47 µM)	0.0625 µg/mL (≈ 0.118 µM)		0.25 µg/mL (≈ 0.47 µM)	0.0625 µg/mL (≈ 0.118 µM)
O=C(Nc1ccc(-c2ccc(OCC(O)(Cn3cncn3)c3ccc(F)cc3F)cc2)cn1)c1ccc(CCl)cc1 (stereo unspecified)	1 µg/mL (≈ 1.74 µM)	0.25 µg/mL (≈ 0.434 µM)	> 64 µg/mL	0.0156 µg/mL (≈ 0.0271 µM)	1 µg/mL (≈ 1.74 µM)	0.0625 µg/mL (≈ 0.109 µM)		0.25 µg/mL (≈ 0.434 µM)	0.0625 µg/mL (≈ 0.109 µM)
CCN(CC)Cc1ccc(C(=O)Nc2ccc(-c3ccc(OCC(O)(Cn4cncn4)c4ccc(F)cc4F)cc3)cn2)cc1 (stereo unspecified)	0.25 µg/mL (≈ 0.408 µM)	4 µg/mL (≈ 6.53 µM)	> 64 µg/mL	0.0625 µg/mL (≈ 0.102 µM)	1 µg/mL (≈ 1.63 µM)	0.0625 µg/mL (≈ 0.102 µM)		1 µg/mL (≈ 1.63 µM)	0.25 µg/mL (≈ 0.408 µM)
Cc1ccc(C(=O)Nc2ccc(-c3ccc(OCC(O)(Cn4cncn4)c4ccc(F)cc4F)cc3)cn2)cc1 (stereo unspecified)	1 µg/mL (≈ 1.85 µM)	0.25 µg/mL (≈ 0.462 µM)	> 64 µg/mL	0.0625 µg/mL (≈ 0.115 µM)	0.25 µg/mL (≈ 0.462 µM)	0.0625 µg/mL (≈ 0.115 µM)		0.0625 µg/mL (≈ 0.115 µM)	0.0625 µg/mL (≈ 0.115 µM)
OC(COc1ccc(-c2ccc(NCc3ccccc3)nc2)cc1)(Cn1cncn1)c1ccc(F)cc1F (stereo unspecified)	4 µg/mL (≈ 7.79 µM)	1 µg/mL (≈ 1.95 µM)	4 µg/mL (≈ 7.79 µM)	0.25 µg/mL (≈ 0.487 µM)	> 64 µg/mL	0.25 µg/mL (≈ 0.487 µM)		0.25 µg/mL (≈ 0.487 µM)	0.0625 µg/mL (≈ 0.122 µM)
Nc1ccc(-c2ccc(OCC(O)(Cn3cncn3)c3ccc(F)cc3F)cc2)cn1 (stereo unspecified)	0.0625 µg/mL (≈ 0.148 µM)	64 µg/mL (≈ 151 µM)	4 µg/mL (≈ 9.45 µM)	0.0625 µg/mL (≈ 0.148 µM)	0.25 µg/mL (≈ 0.59 µM)	0.25 µg/mL (≈ 0.59 µM)		0.0156 µg/mL (≈ 0.0368 µM)	0.25 µg/mL (≈ 0.59 µM)

Second part, the compound after the results:

MIC [1]	MIC [2]	MIC [3]	MIC [4]	MIC [5]	MIC [6]	MIC [7]	MIC [8]	MIC [9]	SMILES
1 µg/mL (≈ 2.22 µM)	1 µg/mL (≈ 2.22 µM)	> 64 µg/mL	0.0039 µg/mL (≈ 0.00866 µM)	1 µg/mL (≈ 2.22 µM)	0.0156 µg/mL (≈ 0.0346 µM)	0.0039 µg/mL (≈ 0.00866 µM)	1 µg/mL (≈ 2.22 µM)		ON=Cc1ccc(-c2ccc(OCC(O)(Cn3cncn3)c3ccc(F)cc3F)cc2)cc1 (stereo unspecified)
4 µg/mL (≈ 8.36 µM)	16 µg/mL (≈ 33.4 µM)	> 64 µg/mL	1 µg/mL (≈ 2.09 µM)	1 µg/mL (≈ 2.09 µM)	0.0625 µg/mL (≈ 0.131 µM)		0.25 µg/mL (≈ 0.522 µM)	0.0625 µg/mL (≈ 0.131 µM)	CC(C)NCc1ccc(-c2ccc(OCC(O)(Cn3cncn3)c3ccc(F)cc3F)cc2)cc1 (stereo unspecified)
16 µg/mL (≈ 33.3 µM)	64 µg/mL (≈ 133 µM)	> 64 µg/mL	4 µg/mL (≈ 8.32 µM)	16 µg/mL (≈ 33.3 µM)	1 µg/mL (≈ 2.08 µM)		1 µg/mL (≈ 2.08 µM)	1 µg/mL (≈ 2.08 µM)	OCCNCc1ccc(-c2ccc(OCC(O)(Cn3cncn3)c3ccc(F)cc3F)cc2)cc1 (stereo unspecified)
16 µg/mL (≈ 36.6 µM)	1 µg/mL (≈ 2.29 µM)	> 64 µg/mL	0.0156 µg/mL (≈ 0.0357 µM)	1 µg/mL (≈ 2.29 µM)	0.0156 µg/mL (≈ 0.0357 µM)		1 µg/mL (≈ 2.29 µM)	0.0625 µg/mL (≈ 0.143 µM)	OCc1ccc(-c2ccc(OCC(O)(Cn3cncn3)c3ccc(F)cc3F)cc2)cc1 (stereo unspecified)
0.25 µg/mL (≈ 0.574 µM)	1 µg/mL (≈ 2.3 µM)	> 64 µg/mL	0.0625 µg/mL (≈ 0.144 µM)	0.25 µg/mL (≈ 0.574 µM)	0.25 µg/mL (≈ 0.574 µM)		1 µg/mL (≈ 2.3 µM)	> 64 µg/mL	O=Cc1ccc(-c2ccc(OCC(O)(Cn3cncn3)c3ccc(F)cc3F)cc2)cc1 (stereo unspecified)
1 µg/mL (≈ 2.15 µM)	16 µg/mL (≈ 34.4 µM)	> 64 µg/mL	1 µg/mL (≈ 2.15 µM)	1 µg/mL (≈ 2.15 µM)	0.25 µg/mL (≈ 0.538 µM)		0.25 µg/mL (≈ 0.538 µM)	0.25 µg/mL (≈ 0.538 µM)	CCNCc1ccc(-c2ccc(OCC(O)(Cn3cncn3)c3ccc(F)cc3F)cc2)cc1 (stereo unspecified)
> 64 µg/mL	> 64 µg/mL	> 64 µg/mL	0.25 µg/mL (≈ 0.457 µM)	> 64 µg/mL	0.25 µg/mL (≈ 0.457 µM)		1 µg/mL (≈ 1.83 µM)	0.25 µg/mL (≈ 0.457 µM)	OC(COc1ccc(-c2ccc(CNc3cccc(Cl)c3)cc2)cc1)(Cn1cncn1)c1ccc(F)cc1F (stereo unspecified)
4 µg/mL (≈ 8.88 µM)	64 µg/mL (≈ 142 µM)	> 64 µg/mL	0.25 µg/mL (≈ 0.555 µM)	1 µg/mL (≈ 2.22 µM)	0.25 µg/mL (≈ 0.555 µM)		0.0625 µg/mL (≈ 0.139 µM)	0.25 µg/mL (≈ 0.555 µM)	CNCc1ccc(-c2ccc(OCC(O)(Cn3cncn3)c3ccc(F)cc3F)cc2)cc1 (stereo unspecified)
4 µg/mL (≈ 8.61 µM)	4 µg/mL (≈ 8.61 µM)	64 µg/mL (≈ 138 µM)	0.25 µg/mL (≈ 0.538 µM)	1 µg/mL (≈ 2.15 µM)	0.0625 µg/mL (≈ 0.135 µM)		0.0625 µg/mL (≈ 0.135 µM)	0.25 µg/mL (≈ 0.538 µM)	CN(C)Cc1ccc(-c2ccc(OCC(O)(Cn3cncn3)c3ccc(F)cc3F)cc2)cc1 (stereo unspecified)
1 µg/mL (≈ 1.8 µM)	> 64 µg/mL	16 µg/mL (≈ 28.7 µM)	0.0156 µg/mL (≈ 0.028 µM)	1 µg/mL (≈ 1.8 µM)	0.0039 µg/mL (≈ 0.00701 µM)		0.25 µg/mL (≈ 0.449 µM)	0.0625 µg/mL (≈ 0.112 µM)	O=C(O)c1ccc(NCc2ccc(-c3ccc(OCC(O)(Cn4cncn4)c4ccc(F)cc4F)cc3)cc2)cc1 (stereo unspecified)
